# Entries after “also recorded” stand apart in the source; their conditions may differ.
# Legend:
# SD rats = test: Diuretic efficacy of ROMK inhibitors in SD rats; assay type: in vivo; details: 0.03 and 0.1 mg/kg i.g. once, after urine collection
# Method: The diuretic efficacy of compound 1 and positive control drug of ROMK inhibitor on SD rats was evaluated.
# Male SD rats were purchased from SINO-BRITSH SIPPR/BK LAB. ANIMAL LTD., CO (Shanghai, China, Certificate No. 2008001647752, License SCXK (Shanghai) 2013-0016). The rats were 120-130 g, and fed at 5/cage, in a 12/12 hours light/dark cycle regulation, at a constant temperature of 23±1° C., humidity of 50-60%, and free access to water and food. The male SD rats were acclimated to this condition for 7 days before their use in the diuresis experiment.
# The experiment was carried out according to the method disclosed in PCT Patent Application Publication WO2010129379A1. After adaptive feeding, the rats were placed in metabolism cages and fasted overnight. The rats were weighed and randomly divided into the following groups: blank control group, compound 1 tested drug 0.03 mg/kg group and 0.1 mg/kg group, and the positive control group 0.03 mg/kg and group 0.1 mg/kg, with 10 rats for each group. Each rat was intragastrically administered each compound (ig, 1 ml/kg). The rats in the blank control group were fed with the corresponding solvent. After intragastric administration, the rats were placed in the normal cage. After 30 min, 25 ml/kg normal saline was given. Rats were put into the metabolic cages, and fasting for food and water began inmediately. The total urine volume in 4 h was collected and measured. The urinary sodium and urinary potassium excretion in 4 h were also measured. The orbital serum was collected after the collection of urine to test the serum sodium and serum potassium concentrations.
# The experimental data were expressed as mean±standard deviation (S.D.). The data was statistically compared using the t test of excel.
# [1] = Solubility observed when preparing the drugs for the diuresis experiment; assay type: physicochemical; details: preparation of the dosing liquid, observation in words
# Description: In this experiment, the solubility of the test compound I was very good. There was no delamination phenomenon. […] After fully grinding, the solubility improved. […] Moreover, the effect was dose-dependent for each dose of the test compound I and the positive control drug.
serum sodium (SD rats),serum potassium (SD rats; listed as Compound I),solubility [1],SMILES,serum potassium (SD rats)
changed a little,no effect,very good,"COc1cc(C(=O)NC2CCN(C[C@H](O)c3ccc4c(c3C)COC4=O)CC2)ncc1C#N [Example 1, (R)-5-cyano-N-(1-(2-hydroxy-2-(4-methyl-1-oxo-1,3-dihydroisobenzofuran-5-yl)ethyl)piperidin-4-yl)-4-methoxypicolinamide]",changed a little
changed a little,–,poor solubility,Cc1cc(C(=O)NC2CCN(C[C@H](O)c3ccc4c(c3C)COC4=O)CC2)ncc1C#N [positive control drug],changed a little; also recorded: no effect

# From US10759788B2, “Pharmaceutical uses of pyridine carboxamide derivatives” (Jiangsu Hengrui Medicine Co., Ltd., priority 2014, dated 2020)
